Test results taken from ChEMBL document CHEMBL5579878, “Allosteric Activation of Protein Phosphatase 5 with Small Molecules” (J Med Chem, 2024).
Calls of active or inactive are those of the source. No cut-off for these calls is given here.

Columns and labels:
[1] = target: Dual specificity protein phosphatase 3 (Homo sapiens) (UniProt P51452); assay: Inhibition of DUSP3 (unknown origin) using DiFMUP as substrate at 0.01 to 1000 uM; conditions: dose 0.01-1000 µM
HCT-116 [2] = assay: Downregulation of AT13387-induced HSP27 expression in PP5 Knockout human HCT-116 cells at 50 uM incubated for 24 hrs by Western blot analysis; type: functional, cell-based
[3] = target: T1, Serine/threonine-protein phosphatase 5 (Homo sapiens) (UniProt P53041); assay: Activation of PP5 in human HCT-116 cells assessed as decrease in intracellular S13 residue phosphorylated CDC37 level at 100 uM by Western blot analysis; type: cell-based; conditions: filed as activator, time <= 24.0 hrs, TDE = time-dependent effect
T1 sequence (whole entry): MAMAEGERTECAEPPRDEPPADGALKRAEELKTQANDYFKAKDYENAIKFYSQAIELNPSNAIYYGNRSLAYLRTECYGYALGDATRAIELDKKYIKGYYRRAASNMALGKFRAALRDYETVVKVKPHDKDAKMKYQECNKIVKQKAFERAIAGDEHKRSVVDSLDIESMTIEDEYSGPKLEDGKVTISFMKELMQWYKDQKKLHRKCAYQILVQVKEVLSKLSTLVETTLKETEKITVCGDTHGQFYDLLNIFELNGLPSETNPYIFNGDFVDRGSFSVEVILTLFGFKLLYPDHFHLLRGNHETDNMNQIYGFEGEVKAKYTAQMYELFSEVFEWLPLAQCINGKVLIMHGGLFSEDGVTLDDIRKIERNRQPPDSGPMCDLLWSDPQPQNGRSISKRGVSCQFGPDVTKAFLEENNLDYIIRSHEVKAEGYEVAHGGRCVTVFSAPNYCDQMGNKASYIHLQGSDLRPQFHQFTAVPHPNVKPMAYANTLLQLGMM

SW-620 = assay: Enhancement of HSP90 inhibitor AT13387-induced antiproliferative activity against human SW620 cells assessed as HSP90 inhibitor AT13387 IC50 at 50 uM incubated for 72 hrs by CCK8 assay (reference value: 122.3 nM); type: functional, cell-based; conditions: SW-620, 72 h
HCT-116 [4] = assay: Downregulation of AT13387-induced HSP40 mRNA expression in human HCT-116 cells at 50 uM incubated for 24 hrs by qRT-PCR analysis; type: functional, cell-based
HCT-116 [5] = assay: Antitumor activity against human HCT-116 cells xenografted in BALB/c nude mouse assessed as decrease in AT13387-induced HSP70 protein expression in tumor at 30 to 60 mg/kg, ip administered every other day for 14 days by Western blot analysis; type: functional, organism-based; conditions: dose 30-60 mg/kg, time 14.0 day

Dual specificity protein phosphatase 3 (Homo sapiens), sequence (P51452 whole entry, looked up): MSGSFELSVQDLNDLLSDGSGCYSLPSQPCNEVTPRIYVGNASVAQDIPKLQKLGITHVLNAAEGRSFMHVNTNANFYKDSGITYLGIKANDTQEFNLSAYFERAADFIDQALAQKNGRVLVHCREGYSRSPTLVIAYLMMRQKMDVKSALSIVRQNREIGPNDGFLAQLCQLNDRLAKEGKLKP

inhibition [1]: inactive | Activity [3]: Tde | IC50 (SW-620): 54.4 nM
Structure (SMILES): N=c1oc2cc(F)cc(F)c2cc1C(N)=S
Activity (HCT-116 [2]): inactive | Activity (HCT-116 [4]): Active | Activity (HCT-116 [5]): Active
